Source: ChEMBL document CHEMBL5338791, “Discovery of Novel 1,3-Diphenylpyrazine Derivatives as Potent S-Phase Kinase-Associated Protein 2 (Skp2) Inhibitors for the Treatment of Cancer” (J Med Chem, 2023)
Active and inactive are the calls of the source. The rule behind the calls is not given here.

Columns and labels:
MGC-803 [1] = assay: Induction of cell cycle arrest in human MGC-803 cells assessed as accumulation of cells at G1 phase at 10 uM incubated for 12 hrs by flow cytometry (reference value: 57.09 %); format: functional
[2] = Toxicity in mouse assessed as decrease in platelet level at 10 to 50 mg/kg; format: organism-based; details: dose 10-50 mg/kg
[3] = Toxicity in NOD-SCID mouse model xenografted with human PC-3 cells assessed as change in spleen histology at 10 to 50 mg/kg, IG administered once every 2 days for 21 days by H and E staining based analysis; format: organism-based; details: in vivo, po, 504 h, dose 10-50 mg/kg, time 21 day
PC-3 [4] = assay: Induction of apoptosis in human PC-3 cells assessed as late apoptotic cells at 2.5 uM incubated for 48 hrs by annexin V-FITC/PI staining based flow cytometry (reference value: 0.45 %); format: functional
[5] = biological target: S-phase kinase-associated protein 2 (Homo sapiens, UniProt Q13309); assay: Inhibition of Skp2 in human PC-3 cells treated with shRNA 5'-GGACCTATCGAACTCAGTTAT-3' incubated upto 48 hrs by Western blot analysis (reference value: 4.8 +/- 0.5 microM); format: cell-based
MGC-803 [6] = assay: Induction of cell cycle arrest in human MGC-803 cells assessed as accumulation of cells at G2 phase at 10 uM incubated for 48 hrs by flow cytometry (reference value: 21.35 %); format: functional
PC-3 [7] = assay: Induction of cell cycle arrest in human PC-3 cells assessed as accumulation of cells at G2 phase at 10 uM incubated for 36 hrs by flow cytometry (reference value: 19.34 %); format: functional
MGC-803 [8] = assay: Induction of cell cycle arrest in human MGC-803 cells assessed as accumulation of cells at S phase at 10 uM incubated for 24 hrs by flow cytometry (reference value: 20.41 %); format: functional
MGC-803 [9] = assay: Induction of apoptosis in human MGC-803 cells assessed as nuclear condensation incubated for 48 hrs; format: functional, cell-based; details: dose <= 10.0 µM
MCF7 = assay: Antitumor activity against human MCF7 cells assessed as cell growth inhibition incubated for 72 hrs by MTT assay; format: functional, cell-based; details: MCF7, 72 h
PC-3 [10] = assay: Induction of cell cycle arrest in human PC-3 cells assessed as accumulation of cells at S phase at 10 uM incubated for 36 hrs by flow cytometry (reference value: 19.7 %); format: functional
NCI-H1299 = assay: Antitumor activity against human NCI-H1299 cells assessed as cell growth inhibition incubated for 72 hrs by MTT assay; format: functional, cell-based; details: NCI-H1299, 72 h
MGC-803 [11] = assay: Induction of cell cycle arrest in human MGC-803 cells assessed as accumulation of cells at G1 phase at 2.5 uM incubated for 48 hrs by flow cytometry (reference value: 54.46 %); format: functional
[12] = Toxicity in NOD-SCID mouse model xenografted with human PC-3 cells assessed as body weight change at 10 to 50 mg/kg, IG administered once every 2 days for 21 days; format: organism-based; details: in vivo, po, 504 h, dose 10-50 mg/kg, time 21 day
PC-3 [13] = assay: Upregulation of p27 level in human PC-3 cells at 10 uM incubated upto 48 hrs by Western blot analysis; format: functional, cell-based
[14] = Toxicity in NOD-SCID mouse model xenografted with human MGC-803 cells assessed as change in spleen histology at 10 to 50 mg/kg, IG administered once every 2 days for 21 days by H and E staining based analysis; format: organism-based; details: in vivo, po, 504 h, dose 10-50 mg/kg, time 21 day
PC-3 [15] = assay: Antitumor activity against human PC-3 cells xenografted in NOD-SCID mouse model assessed as tumor suppression at 50 mg/kg, IG administered once every 2 days for 21 days relative to control; format: functional; details: time 21 day
PC-3 [16] = assay: Inhibition of colony formation in human PC-3 cells at 0.5 to 2 uM incubated for 10 days by crystal violet staining based microscopy; format: functional, cell-based; details: dose 0.5-2 µM, time 10.0 day
PC-3 [17] = assay: Inhibition of cell migration in human PC-3 cells by transwell invasion assay; format: functional, cell-based; details: dose <= 2.0 µM
PC-3 [18] = assay: Induction of apoptosis in human PC-3 cells assessed as necrotic cells at 2.5 uM incubated for 48 hrs by annexin V-FITC/PI staining based flow cytometry (reference value: 0.14 %); format: functional
PC-3 [19] = assay: Upregulation of p21 level in human PC-3 cells at 10 uM incubated upto 48 hrs by Western blot analysis; format: functional, cell-based
PC-3 [20] = assay: Induction of cell cycle arrest in human PC-3 cells assessed as accumulation of cells at G2 phase at 10 uM incubated for 12 hrs by flow cytometry (reference value: 19.34 %); format: functional
MGC-803 [21] = assay: Induction of apoptosis in human MGC-803 cells assessed as cell shrinkage incubated for 48 hrs; format: functional, cell-based; details: dose <= 10.0 µM
[22] = Toxicity in NOD-SCID mouse model xenografted with human MGC-803 cells assessed as change in heart histology at 10 to 50 mg/kg, IG administered once every 2 days for 21 days by H and E staining based analysis; format: organism-based; details: in vivo, po, 504 h, dose 10-50 mg/kg, time 21 day
PC-3 [23] = assay: Induction of apoptosis in human PC-3 cells assessed as nuclear fragmentation incubated for 48 hrs; format: functional, cell-based; details: dose <= 10.0 µM
[24] = Toxicity in NOD-SCID mouse model xenografted with human MGC-803 cells assessed as change in lung histology at 10 to 50 mg/kg, IG administered once every 2 days for 21 days by H and E staining based analysis; format: organism-based; details: in vivo, po, 504 h, dose 10-50 mg/kg, time 21 day
MGC-803 [25] = assay: Antitumor activity against human MGC-803 cells xenografted in NOD-SCID mouse model assessed as downregulation of ki67 level at 10 to 50 mg/kg, IG administered once every 2 days for 21 days by Western blot analysis; format: functional, organism-based; details: dose 10-50 mg/kg, time 21.0 day
[26] = biological target: S-phase kinase-associated protein 2/Cyclin-dependent kinases regulatory subunit 1/S-phase kinase-associated protein 1 (Homo sapiens, UniProt Q13309); assay: Inhibition of GST-tagged Skp2/Skp1 (unknown origin)/His6-tagged Cks1 (unknown origin) interaction preincubated with Skp2/Skp1 for 10 mins followed by Cks1 addition measured after 20 mins by HTRF assay; format: protein assay
[27] = Half life in plasma of NOD-SCID mouse model xenografted with human PC-3 cells at 25 mg/kg, IG measured upto 48 hrs by LC-MS/MS analysis; format: ADME, organism-based; details: po
MGC-803 [28] = assay: Induction of cell cycle arrest in human MGC-803 cells assessed as accumulation of cells at G1 phase at 5 uM incubated for 48 hrs by flow cytometry (reference value: 54.46 %); format: functional
[29] = Metabolic stability in rat liver S9 fraction assessed as half life at 20 umol/L preincubated for 5 mins followed by NADPH addition measured upto 60 mins by LC-MS/MS analysis; format: ADME, subcellular; details: dose 20 µmol/L, time < 65 min
PC-3 [30] = assay: Induction of cell cycle arrest in human PC-3 cells assessed as accumulation of cells at G1 phase at 10 uM incubated for 12 hrs by flow cytometry (reference value: 56.81 %); format: functional
MGC-803 [31] = assay: Induction of apoptosis in human MGC-803 cells assessed as viable cells at 10 uM incubated for 48 hrs by annexin V-FITC/PI staining based flow cytometry (reference value: 98 %); format: functional; details: read-out: Activity
MGC-803 [32] = assay: Induction of apoptosis in human MGC-803 cells assessed as necrotic cells at 5 uM incubated for 48 hrs by annexin V-FITC/PI staining based flow cytometry (reference value: 0.89 %); format: functional

S-phase kinase-associated protein 2/Cyclin-dependent kinases regulatory subunit 1/S-phase kinase-associated protein 1, sequence (P61024 whole entry): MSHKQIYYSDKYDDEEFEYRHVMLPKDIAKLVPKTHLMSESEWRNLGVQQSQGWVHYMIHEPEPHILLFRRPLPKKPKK
S-phase kinase-associated protein 2/Cyclin-dependent kinases regulatory subunit 1/S-phase kinase-associated protein 1, sequence (Q13309 whole entry): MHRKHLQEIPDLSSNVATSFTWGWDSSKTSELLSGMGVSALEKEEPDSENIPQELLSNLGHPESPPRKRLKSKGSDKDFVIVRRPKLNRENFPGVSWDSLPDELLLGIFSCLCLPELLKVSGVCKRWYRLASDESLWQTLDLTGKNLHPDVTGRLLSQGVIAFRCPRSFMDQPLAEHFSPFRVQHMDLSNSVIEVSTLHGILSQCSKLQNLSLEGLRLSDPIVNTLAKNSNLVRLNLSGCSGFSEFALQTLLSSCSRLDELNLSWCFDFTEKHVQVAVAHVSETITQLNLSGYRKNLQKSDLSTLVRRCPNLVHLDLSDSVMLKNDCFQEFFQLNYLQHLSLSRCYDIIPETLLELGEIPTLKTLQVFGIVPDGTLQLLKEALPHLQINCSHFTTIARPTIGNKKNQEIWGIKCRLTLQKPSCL
S-phase kinase-associated protein 2/Cyclin-dependent kinases regulatory subunit 1/S-phase kinase-associated protein 1, sequence (P63208 whole entry, further chain): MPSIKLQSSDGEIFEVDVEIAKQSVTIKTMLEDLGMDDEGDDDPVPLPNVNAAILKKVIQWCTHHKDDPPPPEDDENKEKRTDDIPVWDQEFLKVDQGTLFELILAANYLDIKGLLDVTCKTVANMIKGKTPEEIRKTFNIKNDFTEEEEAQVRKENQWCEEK
S-phase kinase-associated protein 2, sequence (Q13309 whole entry): as the sequence (Q13309 whole entry) above

IC50 [5]: 38.5 µM
IC50 (MCF7): 4.4 µM
IC50 (NCI-H1299): 7.1 µM
IC50 [26]: 2.8 µM
half-life [27]: 14.1 h
half-life at 20 µM [29]: 0.257 h
SMILES: O=C(CCl)NC1CCN(c2cnc(-c3ccccc3)c(-c3ccccc3)n2)CC1
Activity (MGC-803 [1]): 46.55%
Activity [2]: Toxic
Activity [3]: Non-Toxic
Activity (PC-3 [4]): 4.97%
Activity (MGC-803 [6]): 14.35%
Activity (PC-3 [7]): 20.75%
Activity (MGC-803 [8]): 35.4%
Activity (MGC-803 [9]): Dose-Dependent Effect
Activity (PC-3 [10]): 45.23%
Activity (MGC-803 [11]): 49.77%
Activity [12]: Non-Toxic
Activity (PC-3 [13]): Active
Activity [14]: Non-Toxic
Activity (PC-3 [15]): 100%
inhibition (PC-3 [16]): Active
inhibition (PC-3 [17]): Dose-Dependent Effect
Activity (PC-3 [18]): 1.86%
Activity (PC-3 [19]): Active
Activity (PC-3 [20]): 21.89%
Activity (MGC-803 [21]): Dose-Dependent Effect
Activity [22]: Non-Toxic
Activity (PC-3 [23]): Dose-Dependent Effect
Activity [24]: Non-Toxic
Activity (MGC-803 [25]): Active
Activity (MGC-803 [28]): 45.12%
Activity (PC-3 [30]): 44.95%
viability at 10 µM (MGC-803 [31]): 66.9%
Activity (MGC-803 [32]): 1.27%
